Patent US6572896B1, “Methods for inhibiting cell motility” (A.T. Still University of Health Sciences, priority 1998, dated 2003)
Values joined by “and” are separate entries in the source; they are usually repeats but may differ in a detail not shown here. Identical values can stand only once. Like-named read-outs stand apart in the source and are kept apart here. Marks after values point to notes of the source that are not given here.

Key:
B16F10 melanoma cells [1] = assay: Motility assay in blind-well migration chambers with gelatin-coated filter; assay type: cell-based; conditions: for Motility with Verapamil (mean number of cells per filter): n = 2 filters
B16F10 melanoma cells [2] = assay: Microscopic examination of cell morphology; assay type: cell-based; conditions: 4 hours
Procedure: Cell morphology was examined under conditions that were used in the motility assays. B16F10 melanoma cells were cultured directly on gelatin coated glass cover slips (0.1% gelatin for 2 hours and then air dried) for 24 hours under standard cell culture conditions. Culture media was then removed and the cells were washed twice with phosphate buffered saline (PBS) before being exposed to either 0.54 mM, 5.4 mM, or 54 mM K^+ in iso-osmotic saline solutions that were based on the electrolyte composition of RPMI-1640 media. Some solutions also contained GdCl3 or TbCl3 in a concentration of 20 μM. The cells were incubated at 5% CO2 and 37° C. for 4 hours before cells were photographed using an Olympus (IMT-2) inverted microscope.
In order to examine the effects of Gd^3+ and extracellular K^+ concentration on the morphology of the cells, B16F10 melanoma cells were grown under normal conditions on gelatin-coated glass coverslips. The cells were then washed twice with PBS and placed in solutions containing the following concentrations of K^+ and Gd^3+ for exposure periods of 4 hours: […]

[3] = tested on: A2058 human melanoma cells; conditions: cited from earlier work
B16F10 cells [4] = assay: Cell growth after 12 hour Gd^3+ exposure and washout; assay type: cell-based; conditions: Gd^3+ 20 μM in RPMI-E2 12 hours, washed, then growth medium without Gd^3+
Procedure: The potential long term effects of Gd^3+ on cell growth were determined. […] The cell growth was observed after the Gd^3+ was washed from the cells.

B16F10 cells [5] = assay: Trypan blue exclusion assay (cell viability)
Procedure: A test was run to determine the toxicity of Gd^3+ on cells when exposed for seven hours. B16F10 cells were incubated for 12 hours with Gd^3+ at a concentration of 20 μM in the RPMI-E2 solution. A different batch of B16F10 cells were incubated for 12 hours without Gd^3+ in the RPMI-E2 solution. The cells were then examined with a Trypan blue exclusion assay.

[6] = tested on: voltage-gated channels that control quantal neurotransmitter release; conditions: Gd^3+ up to 100 μM; cited from earlier work
[7] = Gd^3+ 20 μM in RPMI-E2, 12 hours
[8] = GdCl3 20 μM, RPMI-E2, normal K^+ and Ca^2+, seven hours, two independent runs

## bFGF: Basic fibroblast growth factor used to enhance motility
B16F10 melanoma cells [1]; bFGF 25 ng/ml in serum free RPMI-1640 in top well
  Motility (mean number of cells per filter): 180 ± 30 cells per filter
B16F10 melanoma cells [1]; bFGF 25 ng/ml in serum free RPMI-1640 vs no bFGF
  increase in the motility of melanoma cells: three-fold increase

## [Cl][Tb]([Cl])[Cl] [Tb^3+, TbCl3]
B16F10 melanoma cells [2]; 20 μM in bathing solution
  cell morphology: the cells had flattened and spread further

## [Cl-].[Cl-].[Co+2] [CoCl2]
[3]
  inhibition of tumor cell motility: completely ineffective
B16F10 melanoma cells [1]
  inhibition of cell motility: approximately 87%
B16F10 melanoma cells [1]; 2 mM
  Motility (mean number of cells per filter): 43 ± 4 cells per filter

## COc1ccc(CCN(C)CCCC(C#N)(c2ccc(OC)c(OC)c2)C(C)C)cc1OC (centres unmarked) [Verapamil, verapamil, reference compound]
B16F10 melanoma cells [1]; verapamil 100 μM, 0.5 mM K^+
  Motility with Verapamil (mean number of cells per filter): 1116 cells per filter
B16F10 melanoma cells [1]; verapamil 100 μM, 5 mM K^+
  Motility with Verapamil (mean number of cells per filter): 434^b cells per filter and 519 cells per filter
B16F10 melanoma cells [1]; verapamil 100 μM, 50 mM K^+
  Motility with Verapamil (mean number of cells per filter): 1100 cells per filter
B16F10 melanoma cells [1]; verapamil 100 μM, control, high K^+ and low K^+ conditions
  effect on motility: did not reduce motility in a way corresponding to the reduction produced by Gd^3+ and Co^2+

## [Ca+2] [Ca^2+]
B16F10 melanoma cells [1]; elevated Ca^2+ (4 mM) vs normal (0.4 mM)
  increase in the motility of the cells: ~20%
B16F10 melanoma cells [1]; extracellular Ca^2+ 0.4 mM (RPMI-E, normal), no bFGF
  Motility (mean number of cells per filter): 78 ± 4^b cells per filter
B16F10 melanoma cells [1]; extracellular Ca^2+ 4.0 mM (RPMI-E4Ca, elevated), no bFGF
  Motility (mean number of cells per filter): 100 ± 6 cells per filter

## [Cl][Gd]([Cl])[Cl] [GdCl3]
B16F10 melanoma cells [2]; 20 μM Gd^3+, low K^+ (0.54 mM)
  cell morphology: rounded and flattened cells with prominent vacuoles
B16F10 melanoma cells [2]; 20 μM Gd^3+, normal K^+ (5.4 mM)
  cell morphology: larger, rounded cells devoid of pseudopodia
B16F10 melanoma cells [2]; 20 μM in bathing solution
  cell morphology: the cells had flattened and spread further
B16F10 cells [4]
  effect on cell growth after washout: No obvious inhibitory effect on cell growth
B16F10 cells [5]; [7]
  cells stained blue: Less than 1%
  viability versus cells not treated: no difference in viability
B16F10 cells [5]; after 20 μM Gd^3+, low K^+, 4 hours
  Trypan Blue exclusion of vacuolated cells (membrane integrity): vacuolated cells excluded dye
B16F10 melanoma cells [1]; Gd 20 μM, K^+ 0.54 mM (RPMI-E2 low K^+)
  Motility (mean number of cells per filter): 240 ± 40^b cells per filter
B16F10 melanoma cells [1]; Gd 20 μM, K^+ 54.0 mM (RPMI-E2 high K^+)
  Motility (mean number of cells per filter): 113 ± 10 cells per filter
B16F10 melanoma cells [1]; GdCl3 20 μM, High Ca^2+ HEPES Ringer solution (Example 1)
  inhibition of cell motility: 71%
B16F10 melanoma cells [1]; GdCl3 20 μM, High Ca^2+ HEPES Ringer solution, 2 h preincubation + 5 h assay, bFGF
  Motility (mean number of cells per filter): 95 ± 6 cells per filter
B16F10 melanoma cells [1]; [8]
  Motility (mean number of cells per filter): 33 ± 6 cells per filter and 50 ± 10 cells per filter
  reduction of motility: 73% and 75%
B16F10 melanoma cells [1]; Gd^3+ 20 μM, 0.54 mM K^+
  inhibition of cell motility: 83%
B16F10 melanoma cells [1]; Gd^3+ 20 μM, 54 mM K^+
  inhibition of cell motility: 90.5%
[6]
  effect on voltage-gated channels: no effect

## [K+] [K^+]
B16F10 melanoma cells [2]; high K^+ (54 mM), no Gd^3+
  cell morphology: rounder and exhibited pseudopodia that appeared blunted
B16F10 melanoma cells [2]; low K^+ (0.54 mM), no Gd^3+
  cell morphology: slightly more cells were observed with distinct lamellipodia
B16F10 melanoma cells [1]; K^+ 0.54 mM, absence of Gd
  Motility (mean number of cells per filter): 1387 ± 103^b cells per filter
B16F10 melanoma cells [1]; K^+ 2.75 mM, absence of Gd
  Motility (mean number of cells per filter): 1164 ± 1006 cells per filter
B16F10 melanoma cells [1]; K^+ 3.87 mM, absence of Gd
  Motility (mean number of cells per filter): 591 ± 40 cells per filter
B16F10 melanoma cells [1]; K^+ 5.4 mM (normal, RPMI-E2), absence of Gd
  Motility (mean number of cells per filter): 475 ± 20 cells per filter
B16F10 melanoma cells [1]; K^+ 10.0 mM, absence of Gd
  Motility (mean number of cells per filter): 578 ± 15 cells per filter
B16F10 melanoma cells [1]; K^+ 16.25 mM, absence of Gd
  Motility (mean number of cells per filter): 494 ± 49 cells per filter
B16F10 melanoma cells [1]; K^+ 22.0 mM, absence of Gd
  Motility (mean number of cells per filter): 558 ± 25 cells per filter
B16F10 melanoma cells [1]; K^+ 27.5 mM, absence of Gd
  Motility (mean number of cells per filter): 471 ± 57 cells per filter
B16F10 melanoma cells [1]; K^+ 35.0 mM, absence of Gd
  Motility (mean number of cells per filter): 646 ± 65 cells per filter
B16F10 melanoma cells [1]; K^+ 54.0 mM, absence of Gd
  Motility (mean number of cells per filter): 1188 ± 50 cells per filter
